# pIC50: −log10 of the molar value. Active and inactive are the calls of the source. The rule behind the calls is not given here.
# Assays:
# [1] = Inhibition of [3H]leucine uptake into CHO cells by L-amino acid transporters; assay type: functional, cell-based; conditions: Cricetulus griseus
# Mus musculus = experiment: Percent protection of DBA/2 mice from audiogenically induced tonic seizures at a dose of 30 mg/kg of test compound; assay type: functional
# Rattus norvegicus [2] = experiment: Inhibition of carrageenan-induced thermal hyperalgesia in rats 1 hr after administration of a 30 mg/kg dose of test compound; NA-not active; assay type: functional, organism-based; design: dose 30 mg/kg
# Rattus norvegicus [3] = experiment: The ability of 30 mg/kg oral dose of compound to restore punished drinking behavior in rats expressed as percent reference activity (PRA); NA-not active; assay type: functional, organism-based; design: dose 30 mg/kg
# [4] = Inhibition of [3H]gabapentin binding to pig brain membranes; design: species or system Sus scrofa, Membrane
# Rattus norvegicus [5] = experiment: The ability of 30 mg/kg oral dose of compound to restore punished drinking behavior in rats expressed as percent reference activity (PRA); assay type: functional
# Rattus norvegicus [6] = experiment: Inhibition of carrageenan-induced thermal hyperalgesia in rats 1 hr after administration of a 30 mg/kg dose of test compound; assay type: functional
Compound,pIC50 [1],Protection (Mus musculus) [%],CITH (Rattus norvegicus [2]),WLC PRA (Rattus norvegicus [3]),pIC50 [4],WLC PRA (Rattus norvegicus [5]),CITH (Rattus norvegicus [6])
CC(C)[C@H](C)[C@H](CN)CC(=O)O,4.55,20,inactive,inactive,–,–,–
NCC1(CC(=O)O)CCCCC1 [GABAPENTIN],4.52,100,–,–,7.15,60,48
CC(C)C[C@@H](CC(=O)O)[C@H](C)N,< 2.00,0,inactive,inactive,7.41,–,–
CCC[C@@H](CC(=O)O)[C@@H](C)N,< 2.08,0,inactive,inactive,5.89,–,–
CC(C)C[C@H](CN)CC(=O)O [PREGABALIN],3.80,100,–,–,–,100,52
CCC(CC)CC(CN)CC(=O)O (stereo not drawn),3.85,0,inactive,inactive,5.88,–,–
CCC(CN)(CC(=O)O)CC(C)C (stereo not drawn),4.22,20,–,inactive,5.07,–,–
CCCC[C@@H](CC(=O)O)[C@@H](C)N,< 2.08,0,inactive,inactive,5.99,–,–
CC(C)C[C@@H](CN)CC(=O)O,3.45,0,inactive,inactive,–,–,–
CC(C)[C@@H](C)[C@H](CN)CC(=O)O,3.80,100,–,–,7.68,152,71
CC(C)C[C@@H](CCN)C(=O)O,< 2.00,0,–,inactive,5.69,–,–
CC(C)C[C@H](CN)[C@H](C)C(=O)O,3.93,0,–,inactive,< 5.00,–,–
CC(C)CC(C)(CN)CC(=O)O (stereo not drawn),4.05,0,inactive,inactive,–,–,–
CC(C)C[C@@H](CC(=O)O)[C@@H](C)N,< 1.00,0,inactive,inactive,6.32,–,–
CCC(CC)C(CN)CC(=O)O (stereo not drawn),3.84,20,inactive,inactive,6.69,–,–
